{"source": "patent US20060128708A1", "about": "“Antagonizing an adenosine A2A receptor to ameliorate one or more components of addictive behavior” (priority 2004, published 2006)", "key": {"[1]": {"experiment": "Highest soluble concentration of DMPX in the injection vehicle", "type": "physicochemical", "conditions": "saline or isotonic; dissolved in warm saline; read-out: highest DMPX soluble concentration achieved", "procedure": "(§1) EtOH dilution (10% v/v) for self-administration was made up using 95% ethyl alcohol and tap water. Sucrose (Saccharose, Fisher Scientific, Fair Lawn, N.J., USA) solution (10% w/v) was made up with tap water. All the compounds tested were obtained from Sigma Chemical Co. (St. Louis, Mo.). The A2A antagonist DMPX (3,7-Dimethyl-1-propargylxanthine) was dissolved in warm saline. The A1 antagonist DPCPX (8-Cyclopentyl-1,3-dipropylxanthine) was dissolved in 20:80 v/v mixture of Alkamuls EL-620 (Rhodia Inc., Cranbury, N.J., USA) and phosphate buffered saline. The D2 antagonist, eticlopride, was dissolved in saline. Drugs were administered in a 1 ml/kg volume except for the group tested with 5, 7 and 20 mg/kg DMPX, in which the injection volume was 2 ml/kg as the highest DMPX soluble concentration achieved was 10 mg/ml. Drugs were prepared fresh every treatment day."}, "[2]": {"tested_on": "Male Long Evans rats", "experiment": "Ethanol operant self-administration in rats (30 min FR3 session, 10% EtOH)", "type": "in vivo, rat", "procedure": "Separate groups of rats were given the D2 antagonist eticlopride (0.005, 0.007, 0.01 mg/kg), the A2A antagonist DMPX (1, 3, 5, 7, 10 and 20 mg/kg) and the Al antagonist DPCPX (0.125, 0.25, 0.5 mg/kg) by systemic injections.\nMale Long Evans rats (Harlan, Indianapolis, Ind.) weighing approximately 250 g at the beginning of the studies, were individually housed with food and water available ad libitum except when stated otherwise. They were maintained on a 12 h light/dark cycle, lights on at 7:00 am. Operant training occurred between 8:30 am and 2:00 pm. The experimental procedures were approved in advance by our Institutional Animal Care and Use Committee.\nas §1\nEtOH operant self-administration was carried out in standard operant chambers (Med Associates, Georgia, Vt.) housed in sound-attenuated cubicles. Each chamber (33×30.5×33 cm) contained two retractable levers against the right wall, 7 cm from the floor and 1 cm from the right or left edge of the right wall, respectively. One recessed dish positioned at 2.5 cm above floor level and 6 cm from the levers towards the center of the chamber was the reinforcer receptacle. Fluid (0.1 ml) was delivered from syringe pumps upon activation of 1 of the 2 retractable response levers. A 3 sec tone was activated upon lever pressing. […] The beginning of a training session was signaled by the onset of the house light located in the center of the wall facing the levers, at 27.2 cm above the floor. A computer controlled stimulus and fluid delivery and recorded operant responses.\nBefore the beginning of EtOH operant self-administration, rats were exposed to a 10% EtOH (1OE) solution as the only liquid source in their home cages for 4 days. For the next 14 days, animals were allowed free choice between 10E in tap water or tap water from graded glass tubes. At the end of this 14-day period, operant self-administration was initiated according to the sucrose fading technique (Samson, 1986) with minor modifications. Rats were restricted to 30 minutes of water per day for 2 consecutive days. On the night of the second day of water restriction, rats were placed in the operant chambers for a 12-15 hrs overnight session on an FR1 schedule (1 reinforcement of 0.1 ml per lever press) with 10% sucrose (10S) as reinforcer and both levers active. The next day, rats began the operant self-administration training. Animals were kept on water restriction for the next 4-5 days during which they received one 45 min session per day on an FR1 schedule with 10S as reinforcer and one active lever. They were then given free water in their home cages for the remainder of the experiment and were trained for 2-3 more of the above described sessions. The next day, sessions were shortened to 30 minutes and the ratio of responding was increased to FR3. EtOH was added to the sweet solution (10S10E) and rats received 3-4 sessions of this solution, followed by at least 20 sessions with 10E only. A minimum average of 0.3 g/kg EtOH consumption in 8 sessions prior to the beginning of any drug treatment was required. […]"}, "[3]": {"conditions": "DMPX 1 mg/kg ip, vs saline, p<0.03"}, "[4]": {"conditions": "DMPX 10 mg/kg ip, vs saline, p<0.02"}, "[5]": {"conditions": "DMPX 20 mg/kg ip, vs saline, p<0.05"}, "[6]": {"conditions": "DPCPX 0.125, 0.25, or 0.5 mg/kg ip, ANOVA NS"}}, "note": "Entries after “also recorded” stand apart in the source; their conditions may differ.", "data": [{"smiles": "C#CCn1c(=O)c2c(ncn2C)n(C)c1=O", "note": "[DMPX, 3,7-Dimethyl-1-propargylxanthine]", "values": [{"measurement": "solubility", "setting": "[1]", "value": 10000, "unit": "µg/mL"}, {"measurement": "number of lever presses", "setting": "[2]; DMPX 1 mg/kg ip, vs saline, p<0.02", "value": "significantly increased"}, {"measurement": "g/kg of EtOH intake", "setting": "[2]; [3]", "value": "significantly increased"}, {"measurement": "number of EtOH reinforcements", "setting": "[2]; [3]", "value": "significantly increased"}, {"measurement": "any of the measures (lever presses, EtOH reinforcements, g/kg EtOH)", "setting": "[2]; DMPX 3 mg/kg ip, vs saline", "value": "did not significantly affect"}, {"measurement": "any of the measures (lever presses, EtOH reinforcements, g/kg EtOH)", "setting": "[2]; DMPX 5 mg/kg ip, vs saline", "value": "did not significantly affect"}, {"measurement": "any of the measures (lever presses, EtOH reinforcements, g/kg EtOH)", "setting": "[2]; DMPX 7 mg/kg ip, vs saline", "value": "did not significantly affect"}, {"measurement": "g/kg of EtOH consumption", "setting": "[2]; [4]", "value": "significantly decreased"}, {"measurement": "number of lever presses", "setting": "[2]; [4]", "value": "significantly decreased"}, {"measurement": "number of EtOH reinforcements", "setting": "[2]; DMPX 10 mg/kg ip, vs saline, p<0.03", "value": "significantly decreased"}, {"measurement": "g/kg EtOH intake", "setting": "[2]; [5]", "value": "decreased"}, {"measurement": "number EtOH reinforcements", "setting": "[2]; [5]", "value": "significant effect"}, {"measurement": "EtOH self-administration, dose-effect function", "setting": "[2]; DMPX 1-20 mg/kg ip", "value": "bimodal effect"}]}, {"smiles": "CCCn1c(=O)c2[nH]c(C3CCCC3)nc2n(CCC)c1=O", "note": "[DPCPX, 8-Cyclopentyl-1,3-dipropylxanthine]", "values": [{"measurement": "g/kg of EtOH consumption", "setting": "[2]; [6]", "value": "no effect"}, {"measurement": "number of EtOH reinforcements", "setting": "[2]; [6]", "value": "no effect"}, {"measurement": "number of lever presses", "setting": "[2]; [6]", "value": "no effect"}, {"measurement": "EtOH self-administration, effect across doses", "setting": "[2]; DPCPX 0.125-0.5 mg/kg ip", "value": "without effect; also recorded: did not affect"}]}, {"smiles": "CCc1cc(Cl)c(OC)c(C(=O)NC[C@@H]2CCCN2CC)c1O", "note": "[eticlopride]", "values": [{"measurement": "any of the analyzed measurements (lever presses, reinforcements, g/kg EtOH)", "setting": "[2]; eticlopride 0.005 mg/kg sc, vs saline", "value": "did not significantly affect"}, {"measurement": "number of lever presses", "setting": "[2]; eticlopride 0.007 mg/kg sc, vs saline, decrease, p<0.005", "value": "significant effects"}, {"measurement": "g/kg of EtOH consumption", "setting": "[2]; eticlopride 0.007 mg/kg sc, vs saline, decrease, p<0.01", "value": "significant effects"}, {"measurement": "number of reinforcements", "setting": "[2]; eticlopride 0.007 mg/kg sc, vs saline, decrease, p<0.02", "value": "significant effects"}, {"measurement": "number of lever presses", "setting": "[2]; eticlopride 0.01 mg/kg sc, vs saline, decrease, p<0.0001", "value": "significant effects"}, {"measurement": "g/kg of EtOH consumption", "setting": "[2]; eticlopride 0.01 mg/kg sc, vs saline, decrease, p<0.004", "value": "significant effects"}, {"measurement": "number of reinforcements", "setting": "[2]; eticlopride 0.01 mg/kg sc, vs saline, decrease, p<0.007", "value": "significant effects"}, {"measurement": "EtOH self-administration, effect across doses", "setting": "[2]; eticlopride 0.005-0.01 mg/kg sc", "value": "dose-dependently decreased"}, {"measurement": "EtOH self-administration, effect across doses", "setting": "[2]; eticlopride 0.005-0.01 mg/kg sc, listed as Eticlopride", "value": "dose-dependently reduced"}]}]}
